{"source": "patent US10258664B2", "about": "“Methods and compositions for treating pain” (MannKind Corporation, priority 2011, dated 2019)", "key": {"patient": {"tested_on": "patient", "assay": "Patient examples: inhaled analgesic composition, patient-reported pain", "format": "in vivo, human", "description": "patient one reports headache pain to their doctor. […] The analgesic composition is 15% peptide. The analgesic composition is administered with a reusable inhaler calibrated to provide a dose of 5 mg/kg of body weight.\nA patient undergoing chemotherapy reports stomach pain to their doctor. […] The analgesic composition is 15% peptide. The analgesic composition is administered with a reusable inhaler calibrated to provide a dose of 5 mg/kg of body weight.\n(§1) A patient reports back pain to their doctor. Following examination of the patient, the doctor prescribes an analgesic composition containing a FDKP/Trp-(D)Pro-Ser-Phe-NH2 (SEQ ID NO: 3, Compound 3), composition prepared as described in the previous Examples. The analgesic composition is 15% peptide. The analgesic composition is administered with a reusable inhaler calibrated to provide a dose of 4 mg/kg of body weight.\nas §1, with “dental” for “back”, “an Na2FDKP/Ac-His-(D)Phe-Arg-(D)Trp-Gly-NH2” for “a FDKP/Trp-(D)Pro-Ser-Phe-NH2”, “6,” for “3,”, “6)” for “3),”, “10%” for “15%”, “7” for “4”\nA patient reports pain due to multiple sclerosis to their doctor. […] The analgesic composition is 20% peptide. The analgesic composition is administered with a reusable inhaler calibrated to provide a dose of 3 mg/kg of body weight.\npatient two reports muscle pain to their doctor. Following examination of the patient, the doctor prescribes an analgesic composition containing a FDKP/Ac-His-(D)Phe-Arg-(D)Trp-Gly-NH2 (SEQ ID NO: 6, Compound 6) composition prepared as described in the previous Examples. The analgesic composition is 15% peptide. The analgesic composition is administered with a reusable inhaler calibrated to provide a dose of 5 mg/kg of body weight.\nA patient reports pain from a broken arm to their doctor. Following examination of the patient, the doctor prescribes an analgesic composition containing a Na2FDKP/Trp-(D)Ser-Ser-Phe-NH2 (SEQ ID NO: 4, Compound 4) composition prepared as described in the previous Examples. The analgesic composition is 25% peptide. The analgesic composition is administered with a reusable inhaler calibrated to provide a dose of 2 mg/kg of body weight.\nA patient reports their low pain threshold to their dentist. Following examination of the patient and prior to the dental procedure, the dentist administers an analgesic composition containing a FDKP/Ac-Nle-Gln-His-(D)Phe-Arg-(D)Trp-Gly-NH2 (SEQ ID NO:7, Compound 7) composition prepared as described in the previous Examples. The analgesic composition is 10% peptide. The analgesic composition is administered with a single-use inhaler designed to provide a dose of 5 mg/kg of body weight."}, "mice [1]": {"tested_on": "mice", "assay": "Spontaneous locomotion and respiration in the comprehensive laboratory animal monitoring system (CLAMS)", "conditions": "0.125 mg by insufflation; for ambulation (spontaneous locomotion): FIG. 4A; for respiration rate: FIG. 4B"}, "mice [2]": {"tested_on": "mice", "assay": "Conditioned place preference (CPP) study", "conditions": "0.125 mg insufflated; FIG. 5", "description": "In a conditioned place preference (CPP) study to evaluate the “reward” or “aversive” value of the drug, mice are conditioned to associate one compartment of the apparatus with treatment. […] The experiments were conducted similarly as described in the previous examples. […] To test placebo effect, additional mice were insufflated with FDKP (TECHNOSPHERE®) powder (0.5 mg) without any peptide."}, "mice [3]": {"tested_on": "mice", "assay": "55° C. warm-water tail withdrawal (tail-flick) assay", "format": "in vivo, mouse", "conditions": "FIG. 1; for plateau of antinociceptive effect: insufflated", "description": "Antinociceptive effect was tested in a mouse tail-withdrawal (“tail-flick,” Aldrich et al. 2009) assay in which the tail of a restrained mouse is exposed to water at 55° C. […] Durations shorter than the maximum are reported as a percentage of the time limit. This tail-flick test (also known as the 55° C. warm-water tail withdrawal assay) is an industry acceptable, nonclinical model for assessing the efficacy of analgesics in treating acute pain. To test placebo effect, FDKP (TECHNOSPHERE®) powder (0.5 mg) without any peptide was used in the study. Each animal is tested for baseline tail-withdrawal latency prior to drug administration. Latency to withdraw the tail was subsequently measured in 10 minutes post-drug administration intervals as indicated. A maximum response time of 15 seconds was utilized to prevent tissue damage. Data reported as percent antinociception, as calculated by the following equation: % antinociception is equal to 100 times (test latency minus baseline latency) divided by (15 minus baseline latency).\nThe tetrapetide, (D)Phe-(D)Phe-(D)Nle-(D)Arg-NH2 (SEQ ID NO: 2, Compound 2) was administered to mice by intraperitoneal (i.p.) injection (3 mg/kg) in a saline solution, and by pulmonary insufflation of a dry powder formulation containing FDKP at various doses, 0.25 mg, 0.125 mg, 0.013 mg, 1.25 μg and 0.13 μg. The tail-flick test was performed for a period of time after administration. […]"}}, "note": "Residues, ends and D or L forms follow the SMILES beside them."}
{"compound": "Ac-His-(D)Phe-Arg-(D)Trp-Gly-NH2 (HXRXG; HELM PEPTIDE1{[ac].H.[dF].R.[dW].G.[am]}$$$$V2.0; SMILES CC(=O)N[C@@H](Cc1c[nH]cn1)C(=O)N[C@H](Cc1ccccc1)C(=O)N[C@@H](CCCNC(=N)N)C(=O)N[C@H](Cc1c[nH]c2ccccc12)C(=O)NCC(N)=O) [Compound 6]", "values": [{"measurement": "patient-reported muscle pain", "setting": "patient; FDKP composition, 15% peptide, inhaled 5 mg/kg, person two", "result": "elimination of their muscle pain"}, {"measurement": "patient-reported dental pain", "setting": "patient; Na2FDKP composition, 10% peptide, inhaled 7 mg/kg, person", "result": "elimination of their dental pain"}]}
{"compound": "CN1CC[C@]23c4c5ccc(O)c4O[C@H]2[C@@H](O)C=C[C@H]3[C@H]1C5", "note": "[morphine, reference compound]", "values": [{"measurement": "ambulation (spontaneous locomotion)", "setting": "mice [1]", "result": "locomotor hyperactivity"}, {"measurement": "respiration rate", "setting": "mice [1]", "result": "depress the rate of respiration"}, {"measurement": "place preference for the drug-paired compartment", "setting": "mice [2]", "result": "strong preference for the associated compartment"}]}
{"compound": "CCCC[C@@H](NC(=O)[C@@H](Cc1ccccc1)NC(=O)[C@H](N)Cc1ccccc1)C(=O)N[C@H](CCCNC(=N)N)C(N)=O", "note": "[Compound 2, (D)Phe-(D)Phe-(D)Nle-(D)Arg-NH2] (HELM PEPTIDE1{[dF].[dF].[CCCC[C@@H](N[*:1])C(=O)[*:2]].[dR].[am]}$$$$V2.0; N-terminus assumed)", "values": [{"measurement": "ambulation (spontaneous locomotion)", "setting": "mice [1]", "result": "comparable to animals receiving placebo"}, {"measurement": "respiration rate", "setting": "mice [1]", "result": "comparable to animals receiving placebo"}, {"measurement": "antinociception effect versus time", "setting": "mice [3]; all doses: i.p. 3 mg/kg in saline and insufflated FDKP dry powder 0.25 mg to 0.13 μg", "result": "rapidly provided near-complete antinociception"}, {"measurement": "time course of antinociceptive effect", "setting": "mice [3]; i.p. injection 3 mg/kg in saline", "result": "decayed almost linearly with time"}, {"measurement": "dose response of antinociception", "setting": "mice [3]; insufflated FDKP dry powder 0.25 mg to 0.13 μg", "result": "clear dose response was evident"}, {"measurement": "plateau of antinociceptive effect", "setting": "mice [3]; 0.125 mg dose", "result": "approximately 30 minutes"}, {"measurement": "plateau of antinociceptive effect", "setting": "mice [3]; 0.25 mg dose", "result": "50 to 55", "unit": "min"}, {"measurement": "place preference for the drug-paired compartment", "setting": "mice [2]", "result": "no preference for the paired compartment"}, {"measurement": "patient-reported headache pain", "setting": "patient; FDKP composition, 15% peptide, inhaled 5 mg/kg, person one", "result": "elimination of their headache pain"}, {"measurement": "patient-reported pain due to multiple sclerosis", "setting": "patient; Na2FDKP composition, 20% peptide, inhaled 3 mg/kg, person", "result": "elimination of their multiple sclerosis pain"}]}
{"compound": "CC[C@@H](C)[C@@H](NC(=O)[C@@H](Cc1ccccc1)NC(=O)[C@H](N)Cc1ccccc1)C(=O)N[C@H](CCCNC(=N)N)C(N)=O", "note": "[Compound 1, (D)Phe-(D)Phe-(D)Ile-(D)Arg-NH2]", "values": [{"measurement": "ambulation (spontaneous locomotion)", "setting": "mice [1]", "result": "comparable to animals receiving placebo"}, {"measurement": "respiration rate", "setting": "mice [1]", "result": "comparable to animals receiving placebo"}, {"measurement": "place preference for the drug-paired compartment", "setting": "mice [2]", "result": "no preference for the paired compartment"}]}
{"compound": "Ac-Nle-Gln-His-(D)Phe-Arg-(D)Trp-Gly-NH2 [Compound 7]", "values": [{"measurement": "patient-reported pain during dental procedure", "setting": "patient; FDKP composition, 10% peptide, single-use inhaler 5 mg/kg, given before procedure, person", "result": "no pain during the dental procedure"}]}
{"compound": "NC(=O)[C@H](Cc1ccccc1)NC(=O)[C@H](CO)NC(=O)[C@H]1CCCN1C(=O)[C@@H](N)Cc1c[nH]c2ccccc12", "note": "[Compound 3, Trp-(D)Pro-Ser-Phe-NH2] (HELM PEPTIDE1{W.[dP].S.F.[am]}$$$$V2.0)", "values": [{"measurement": "patient-reported back pain", "setting": "patient; FDKP composition, 15% peptide, inhaled 4 mg/kg, person", "result": "elimination of their back pain"}]}
{"compound": "NC(=O)[C@H](Cc1ccccc1)NC(=O)[C@H](CO)NC(=O)[C@@H](CO)NC(=O)[C@@H](N)Cc1c[nH]c2ccccc12", "note": "[Compound 4, Trp-(D)Ser-Ser-Phe-NH2] (HELM PEPTIDE1{W.[dS].S.F.[am]}$$$$V2.0)", "values": [{"measurement": "patient-reported pain from a broken arm", "setting": "patient; Na2FDKP composition, 25% peptide, inhaled 2 mg/kg, person", "result": "elimination of their pain"}]}
